Where a name gives a salt, the structure may show the parent alone. Read-outs that look alike come from different tables or passages of the source.
Tests used:
[1] = molecular target: T1, Na^+/H^+-Austauscher (Homo sapiens, UniProt P19634); assay: Inhibition of the Na+/H+ exchanger in human colon cancer cells (HT-29), BCECF fluorescence pH measurement; format: cell-based; conditions: HT-29-Zellen; 4 min, 37°C, pH 7.0
T1 construct: HT-29-Zellen werden bei 37°C, 5% CO2 in Wachstumsmedium inkubiert; endogenous in cells; host or cells: HT-29 human colon cancer cells
T1 sequence (P19634 whole entry): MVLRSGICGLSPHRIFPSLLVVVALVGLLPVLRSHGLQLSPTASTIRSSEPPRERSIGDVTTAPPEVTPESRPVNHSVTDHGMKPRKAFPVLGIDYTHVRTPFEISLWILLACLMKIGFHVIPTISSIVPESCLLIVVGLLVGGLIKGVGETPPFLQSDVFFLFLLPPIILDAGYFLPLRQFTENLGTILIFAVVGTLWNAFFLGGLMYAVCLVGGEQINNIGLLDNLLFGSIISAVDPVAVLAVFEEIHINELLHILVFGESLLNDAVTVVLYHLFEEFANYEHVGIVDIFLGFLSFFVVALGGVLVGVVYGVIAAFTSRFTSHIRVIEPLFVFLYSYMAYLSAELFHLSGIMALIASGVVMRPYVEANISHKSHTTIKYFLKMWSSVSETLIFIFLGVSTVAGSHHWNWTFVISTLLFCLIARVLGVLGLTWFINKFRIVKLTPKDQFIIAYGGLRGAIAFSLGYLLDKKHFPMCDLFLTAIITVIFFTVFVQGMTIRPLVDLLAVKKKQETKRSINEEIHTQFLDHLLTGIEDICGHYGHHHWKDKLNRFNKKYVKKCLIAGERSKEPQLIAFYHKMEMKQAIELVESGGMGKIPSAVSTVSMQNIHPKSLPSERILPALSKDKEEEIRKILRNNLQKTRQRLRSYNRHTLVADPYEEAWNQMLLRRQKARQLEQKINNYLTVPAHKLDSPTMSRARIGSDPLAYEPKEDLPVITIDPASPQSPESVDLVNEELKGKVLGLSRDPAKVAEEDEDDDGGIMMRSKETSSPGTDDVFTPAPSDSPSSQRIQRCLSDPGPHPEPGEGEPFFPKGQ
Protocol: Inhibition des Na^+/H^+-Austauschers in humanen Darmkrebszellen (HT-29):
HT-29-Zellen werden bei 37°C, 5% CO2 in Wachstumsmedium inkubiert. Nach 3-5 Tagen wurde das Wachstumsmedium entfernt, die Zellen gewaschen und mit 7.5 µM BCECF-AM (pH-sensitiver Fluoreszenzfarbstoff) bei 37°C ohne CO2 beladen. Nach 30 min werden die Zellen gewaschen und mit folgendem Medium angesäuert: 70 mM Cholinchlorid, 20 mM NH4Cl, 1 mM MgCl2, 1.8 mM CaCl2, 5 mM Glucose und 15 mM HEPES, pH 7.5.
Nach 6 min Inkubation bei 37°C ohne CO2 werden die Zellen gewaschen und für 5 min mit Waschmedium inkubiert: 120 mM Cholinchlorid, 5 mM KCl, 1 mM MgCl2, 1.8 mM CaCl2, 5 mM Glucose und 15 mM MOPS, pH 7.0.
Das Waschmedium wird entfernt und Kontrollmedium mit oder ohne Testverbindung wird zugegeben: 120 mM NaCl, 5 mM KCl, 1 mM MgCl2, 1.8 mM CaCl2, 5 mM Glucose, 15 mM MOPS, pH 7.0.
Die Zellen werden 4 min bei 37°C ohne CO2 inkubiert und fluorimetrisch (CytoFluor 2350) vermessen. Die Fluoreszenz des Farbstoffes BCECF wird bei den Anregungswellenlängen 485 nm (pH-sensitiv) und 440 nm (nicht pH-sensitiv) und bei der Emissionswellenlänge 530 nm gemessen. Der cytoplasmatische pH wird aus dem Verhältnis der Fluoreszenzen bei 485 und 440 nm berechnet. Das Fluoreszenzverhältnis wird durch Messung des Fluoreszenzsignals nach Äquilibrierung von externem und internem pH mit Nigericin kalibriert.

[2] = Pharmacokinetics in male rats after i.v. and oral administration; format: in vivo, Ratten; conditions: not fasted; for F: non-compartmental analysis (TopFit); for half-life: rat, plasma
Protocol: Pharmakokinetische Daten:
Für die Untersuchungen wurden männliche, ca. 200 g schwere Ratten (nicht nüchtern), verwendet. Zur intravenösen und oralen Applikation werden die Substanzen in einer angesäuerten wässerigen Lösung (pH 3) gelöst. Einzelne Bolus Injektionen (0.5 mg/kg i.v., 2.5 mg/kg p.o.) werden in die Schwanzvene injiziert (0.2 ml/200g) oder über eine Kanüle in den Magen gegeben (1 ml/200 g). Die Applikationslösungen werden analysiert, um die applizierte Dosis zu bestätigen. 0.5 ml Aliquots Blut werden vom retro-orbitalen Venenplexus unter kurzer Halothan-Betäubung mit heparinisierten Glass-Kapillaren nach folgendem Schema entnommen: • nach i.v. Applikation: 5 min, 15 min, 30 min, 1 h, 2 h, 4 h, 6 h, 8h; • nach oraler Applikation: 15 min, 1 h, 2 h, 4 h, 6 h, 8 h, 24 h, 32 h.
Die Proben werden zentrifugiert und das Plasma bis zur Analyse bei - 20°C gelagert. Die Proben-Vorbereitung erfolgt durch flüssig-flüssig Extraktion mit einem internen Standard. Die Plasmaextrakte werden mit Reversed Phase HPLC, gekoppelt mit einem Elektrospray-Tandem-Massenspektrometer analysiert. Die pharmakokinetischen Daten werden aus den entsprechenden PlasmaKonzentrationen durch Kompartiment-freie Analyse mit dem TopFit Programm bestimmt (Heinzel, G., Woloszczak, R., Thomann, P. TopFit 2.0 - Pharmacokinetic and pharmacodynamic data analysis, system for the PC, Gustav Fischer Verlag, Stuttgart, Jena, New York, 1993).

[3] = iv, 0.5 mg/kg i.v., read-out: t1/2 (i.v.) (converted)
[4] = po, 2.5 mg/kg p.o., read-out: t1/2 (p.o.) (converted)

Row | SMILES | IC50 [1] [µM] | F ([2]; 0.5 mg/kg i.v., 2.5 mg/kg p.o.) | half-life [2, 3] [h] | half-life [2, 4] [h]
1 | N=C(N)NC(=O)c1ccc(N2CCN(C(=O)c3ccc(F)cc3)CC2)c(C(F)(F)F)c1 [Beispiel 3, 4-(4-(4-Fluorphenylcarbonyl)-1-piperazinyl)-3-trifluormethylbenzoylguanidin-methansulfonat] | 0.038 | 71 | 3.1 | 5.4
2 | N=C(N)NC(=O)c1ccc(N2CCN(C(=O)c3cccc(C(F)(F)F)c3)CC2)c(C(F)(F)F)c1 [Beispiel 5, 4-(4-(3-Trifluormethylphenylcarbonyl)-1-piperazinyl)-3-trifluormethylbenzoylguanidin-hydrochlorid] | 0.023 | 58 | 5.4 | 7.5
3 | Cc1cccc(C(=O)N2CCN(c3ccc(C(=O)NC(=N)N)cc3C(F)(F)F)CC2)c1 [Beispiel 8, 4-(4-(3-Methylphenylcarbonyl)-1-piperazinyl)-3-trifluormethylbenzoylguanidin-methansulfonat] | 0.061 |  |  | 
4 | N=C(N)NC(=O)c1ccc(N2CCN(C(=O)c3ccc[nH]3)CC2)c(C(F)(F)F)c1 [Beispiel 2, 4-(4-(2-Pyrrolylcarbonyl)-1-piperazinyl)-3-trifluormethylbenzoylguanidin-methansulfonat] |  | 63 | 1.3 | 5
5 | N=C(N)NC(=O)c1ccc(N2CCN(C(=O)c3ccco3)CC2)c(C(F)(F)F)c1 [Beispiel 7, 4-(4-(2-Furylcarbonyl)-1-piperazinyl)-3-trifluormethyl-benzoylguanidinmethansulfonat] | 0.084 |  |  | 

The next lines start with results.

Row | IC50 [1] [µM] | SMILES | F ([2]; 0.5 mg/kg i.v., 2.5 mg/kg p.o.) | half-life [2, 3] [h] | half-life [2, 4] [h]
6 | 0.079 | N=C(N)NC(=O)c1ccc(N2CCN(C(=O)c3ccccn3)CC2)c(C(F)(F)F)c1 [Beispiel 10, 4-(4-(2-Pyridylcarbonyl)-1-piperazinyl)-3-trifluormethyl-benzoylguanidindimethansulfonat] |  |  | 
7 | 0.076 | COc1cccc(C(=O)N2CCN(c3ccc(C(=O)NC(=N)N)cc3C(F)(F)F)CC2)c1 [Beispiel 1, 4-(4-(3-Methoxyphenylcarbonyl)-1-piperazinyl)-3-trifluormethylbenzoylguanidin-hydrochlorid] |  |  | 
8 | 0.084 | COc1ccccc1C(=O)N1CCN(c2ccc(C(=O)NC(=N)N)cc2C(F)(F)F)CC1 [Beispiel 4, 4-(4-(2-Methoxyphenylcarbonyl)-1-piperazinyl)-3-trifluormethylbenzoylguanidin-hydrochlorid] |  |  | 

Source: patent EP1165534B1, “BENZOYLGUANIDINE DERIVATIVES WITH ADVANTAGEOUS PROPERTIES, METHOD FOR PRODUCING THEM AND THEIR USE IN THE PRODUCTION OF MEDICAMENTS” (Boehringer Ingelheim Pharma GmbH & Co.KG, priority 1998, dated 2000)
